Common to all, as to type: biochemical
One experiment deals with T1, PRAK (Homo sapiens, UniProt Q8IW41).
T1 sequence (Q8IW41 1-473): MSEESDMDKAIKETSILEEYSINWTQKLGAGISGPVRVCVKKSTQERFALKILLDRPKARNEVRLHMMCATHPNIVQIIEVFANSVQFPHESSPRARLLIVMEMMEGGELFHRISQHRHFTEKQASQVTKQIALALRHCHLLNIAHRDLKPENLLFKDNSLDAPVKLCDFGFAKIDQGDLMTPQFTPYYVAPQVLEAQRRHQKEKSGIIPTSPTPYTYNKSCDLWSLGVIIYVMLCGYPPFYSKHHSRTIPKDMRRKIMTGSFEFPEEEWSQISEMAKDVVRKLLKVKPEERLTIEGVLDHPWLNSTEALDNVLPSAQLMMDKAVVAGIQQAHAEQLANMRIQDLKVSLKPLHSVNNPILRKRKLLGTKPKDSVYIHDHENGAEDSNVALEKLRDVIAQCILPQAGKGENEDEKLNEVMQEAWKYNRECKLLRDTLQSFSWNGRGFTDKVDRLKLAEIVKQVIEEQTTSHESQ
Put plainly: Kinase screen: PRAK assay. As for the experimental part: (§1) Generally, the same procedure was used for all assays. Since the total assay volume was 25.5 microliters, 0.5 microliters of inhibitors at 51× assay concentration were added to the plates before any other addition.
(§2) The basic procedure was to add 0.5 microliters inhibitor/control in DMSO to plate. Fifteen microliters of enzyme/substrate/buffer mix were added and incubated for 5 min. Ten microliters MgATP at the relevant concentration were added and incubated for 30 min. The assay was stopped by adding 5 microliters of 3% orthophosphoric acid. The assay was transferred to a p81 filter plate and read in a scintillation counter of 30 sec/well. Note that this assay procedure was not followed for MKK1, which instead involved a two-step assay, and PKC alpha, which required the addition of lipid vesicles.
(50-1000 cpm/pmole) and incubated for 30 min at room temperature. Assays were stopped by addition of 5 μl of 0.5 M (3%) orthophosphoric acid and then harvested onto P81 Unifilter plates with a wash buffer of 50 mM orthophosphoric acid.

For the next experiment, the target named is MST4 (Homo sapiens, UniProt Q9P289). Put plainly: Kinase screen: MST4 assay. The note with it: 10 micromolar compound; for remaining activity at 10 µM: read-out: mean activity remaining (as a percentage of the original activity), MST4. As for the experimental part: as §1, §2
MST4 assay: 5-20 mU of MST4 (diluted in 50 mM Tris (pH 7.5), 0.1 mM EGTA) was assayed against MBP in a final volume of 25.5 μl containing 50 mM Tris (pH 7.5), 0.1 mM EGTA, 0.33 mg/ml MBP, 10 mM magnesium acetate and 0.02 mM [33P-g-ATP] (500-1000 cpm/pmole) and incubated for 30 mins at room temperature. Assays were stopped by addition of 5 μl of 0.5M (3%) orthophosphoric acid. Assays were harvested onto P81 Unifilter plates using a wash buffer of 50 mM orthophosphoric acid.

The next experiment addresses T2, CDK9/cyclin T complex (Homo sapiens, UniProt P50750).
T2 construct: purchased Proqinase GmbH, Germany
Put plainly: CDK9/cyclin T kinase assay (as for CDK7). The note with it: for remaining activity at 0.1 µM: 100 nM, mean of three (standard deviation), read-out: CDK9 % remaining kinase activity after incubation with 100 nM of compound; for IC50: Table 7, mean of three experiments, read-out: CDK9 kinase inhibition in vitro (IC50). In outline: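 Run as the CDK7 protocol with 50 ng CDK2/cyclin A or 100 ng CDK9/cyclin T; compound 30 min at 30 °C, then 2 μM ATP final for 20 min at 30 °C. ATP depletion by luciferase luminescence (PKLight), triplicate, normalised to no-enzyme and enzyme controls.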

Setting [1] is: 10 micromolar compound, read-out: mean activity remaining (as a percentage of the original activity), PRAK.

Read-outs that look alike come from different tables or passages of the source. Some results are limits rather than exact numbers.

MST4, sequence (Q9P289 whole entry, species assumed): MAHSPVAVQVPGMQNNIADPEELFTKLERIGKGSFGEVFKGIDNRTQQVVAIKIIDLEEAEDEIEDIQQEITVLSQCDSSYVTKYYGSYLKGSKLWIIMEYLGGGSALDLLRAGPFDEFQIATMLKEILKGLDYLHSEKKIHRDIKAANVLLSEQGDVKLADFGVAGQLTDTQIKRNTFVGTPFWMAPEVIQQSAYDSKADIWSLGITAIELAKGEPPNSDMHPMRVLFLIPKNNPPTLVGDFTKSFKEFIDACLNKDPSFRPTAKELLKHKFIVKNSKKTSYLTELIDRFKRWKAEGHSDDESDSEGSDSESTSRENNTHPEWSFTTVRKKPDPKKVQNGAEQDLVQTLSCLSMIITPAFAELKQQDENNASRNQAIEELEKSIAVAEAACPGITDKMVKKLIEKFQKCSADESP
T2 sequence (P50750 whole entry): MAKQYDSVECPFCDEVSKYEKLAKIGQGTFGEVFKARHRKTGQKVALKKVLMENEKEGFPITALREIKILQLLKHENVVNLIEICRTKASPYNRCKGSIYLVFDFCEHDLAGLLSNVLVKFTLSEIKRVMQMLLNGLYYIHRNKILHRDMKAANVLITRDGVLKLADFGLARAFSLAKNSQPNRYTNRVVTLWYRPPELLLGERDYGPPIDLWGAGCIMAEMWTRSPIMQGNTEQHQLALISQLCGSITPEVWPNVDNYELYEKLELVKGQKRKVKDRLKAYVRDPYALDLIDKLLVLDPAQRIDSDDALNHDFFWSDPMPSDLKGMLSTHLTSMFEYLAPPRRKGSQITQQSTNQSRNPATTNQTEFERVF
T2 sequence (O60563 whole entry partner): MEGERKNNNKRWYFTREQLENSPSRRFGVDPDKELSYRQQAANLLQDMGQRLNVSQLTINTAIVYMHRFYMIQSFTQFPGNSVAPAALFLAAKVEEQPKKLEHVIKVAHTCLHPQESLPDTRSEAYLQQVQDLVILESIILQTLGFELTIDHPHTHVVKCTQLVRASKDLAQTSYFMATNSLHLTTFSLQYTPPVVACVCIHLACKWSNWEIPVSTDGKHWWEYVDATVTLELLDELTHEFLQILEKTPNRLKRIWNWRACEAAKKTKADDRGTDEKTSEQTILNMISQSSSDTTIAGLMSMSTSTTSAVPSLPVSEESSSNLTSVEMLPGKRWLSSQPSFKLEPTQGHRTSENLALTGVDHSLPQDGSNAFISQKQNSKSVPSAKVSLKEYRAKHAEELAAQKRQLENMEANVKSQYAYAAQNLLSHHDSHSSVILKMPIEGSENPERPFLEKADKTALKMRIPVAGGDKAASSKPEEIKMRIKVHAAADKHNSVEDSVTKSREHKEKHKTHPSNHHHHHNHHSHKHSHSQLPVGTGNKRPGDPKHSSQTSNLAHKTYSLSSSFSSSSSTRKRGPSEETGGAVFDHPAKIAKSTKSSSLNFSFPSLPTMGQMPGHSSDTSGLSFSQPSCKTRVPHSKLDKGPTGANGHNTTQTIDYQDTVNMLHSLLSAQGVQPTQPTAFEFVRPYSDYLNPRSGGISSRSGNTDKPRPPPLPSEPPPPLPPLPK

In general, remaining activity refers to the signal under treatment as a percentage of the control signal. `CC(C)c1cnn2c(NCc3ccccc3)cc(NCCCCCCCN)nc12` [BS-181]: the remaining activity at 10 µM on PRAK (PRAK, 10 μM, read-out: Mean Remaining Enzyme Activity (%)) worked out at 115%.
One may read the IC50 as the point on the concentration scale where inhibition reaches its midpoint. With `C=C[C@H](CO)Nc1cc(NCc2ccccc2)n2ncc(C(C)C)c2n1` [ICEC0065], at MST4, the remaining activity at 10 µM stood at 91%. Besides, the remaining activity at 10 µM at PRAK (setting [1]) was 86%. Besides, at CDK9/cyclin T complex, the remaining activity at 0.1 µM was found to be 100% and the IC50 is over 1000 nM.
With `CC(C)c1cnn2c(NCc3ccccc3)cc(N[C@@H](CO)[C@H](O)CO)nc12` [ICEC0318, (3S)-3-(7-(Benzylamino)-3-isopropylpyrazolo[1,5-a]pyrimidin-5-ylamino)butane-1,2,4-triol], the values for the remaining activity at 10 µM on MST4 and on PRAK (setting [1]) were 92% and 97%, respectively. The remaining activity at 0.1 µM at CDK9/cyclin T complex came out at 56%.
Consider `CC(C)c1cnn2c(NCc3ccccc3F)cc(NCCCCCN)nc12` [ICEC-0232], for which the “mean activity remaining (as a percentage of the original activity), MST4” value at MST4 amounted to 85%. Also, the “mean activity remaining (as a percentage of the original activity), PRAK” value on PRAK (10 micromolar compound) worked out at 97%.
With `CC[C@H](CO)Nc1cc(NCc2ccccc2)n2ncc(C(C)C)c2n1` [ICEC0067], the remaining activity at 10 µM at MST4 was 103%; at PRAK (setting [1]) it was 94%. For the same compound, the remaining activity at 0.1 µM at CDK9/cyclin T complex was determined as 85%. In addition, the IC50 on CDK9/cyclin T complex worked out at 100 nM.

(Values after patent US8067424B2, “Selective inhibitors for cyclin-dependent kinases” (Emory University, priority 2007, dated 2011).)
